Experimental findings from ChEMBL document CHEMBL1150001, “A rationale for the design and synthesis of m1 selective muscarinic agonists” (Bioorg Med Chem Lett, 1992) are described below.

Where a chain is given by its changes, count along the chain named. Activity calls are given as the source filed them. The calls are words filed in the database; no cut-off is given here.

Experiment [1] addresses T1, Muscarinic acetylcholine receptor M2 (Homo sapiens, UniProt P08172).
T1 sequence (P08172 whole entry): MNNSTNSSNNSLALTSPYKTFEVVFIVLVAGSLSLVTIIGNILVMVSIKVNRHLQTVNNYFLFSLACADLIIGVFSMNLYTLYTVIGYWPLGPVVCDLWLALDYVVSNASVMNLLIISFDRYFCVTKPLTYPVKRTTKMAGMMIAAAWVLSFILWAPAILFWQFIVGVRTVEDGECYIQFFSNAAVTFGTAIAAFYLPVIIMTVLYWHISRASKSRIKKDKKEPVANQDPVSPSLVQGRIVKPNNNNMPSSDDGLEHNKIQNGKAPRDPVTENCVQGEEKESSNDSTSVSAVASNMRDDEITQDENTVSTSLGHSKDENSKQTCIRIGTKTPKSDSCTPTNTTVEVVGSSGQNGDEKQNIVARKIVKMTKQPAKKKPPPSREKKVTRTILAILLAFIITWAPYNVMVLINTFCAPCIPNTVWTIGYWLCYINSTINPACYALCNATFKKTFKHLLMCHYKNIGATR
In words: Inhibitory activity against human Muscarinic acetylcholine receptor M2 using [3H]quinuclidinyl benzilate to label antagonist site (RQNB) in CHO cells. It is filed as cell-based.

For experiment [2], the target named is T2, Muscarinic acetylcholine receptor M1 (Homo sapiens) (UniProt P11229).
T2 sequence (whole entry): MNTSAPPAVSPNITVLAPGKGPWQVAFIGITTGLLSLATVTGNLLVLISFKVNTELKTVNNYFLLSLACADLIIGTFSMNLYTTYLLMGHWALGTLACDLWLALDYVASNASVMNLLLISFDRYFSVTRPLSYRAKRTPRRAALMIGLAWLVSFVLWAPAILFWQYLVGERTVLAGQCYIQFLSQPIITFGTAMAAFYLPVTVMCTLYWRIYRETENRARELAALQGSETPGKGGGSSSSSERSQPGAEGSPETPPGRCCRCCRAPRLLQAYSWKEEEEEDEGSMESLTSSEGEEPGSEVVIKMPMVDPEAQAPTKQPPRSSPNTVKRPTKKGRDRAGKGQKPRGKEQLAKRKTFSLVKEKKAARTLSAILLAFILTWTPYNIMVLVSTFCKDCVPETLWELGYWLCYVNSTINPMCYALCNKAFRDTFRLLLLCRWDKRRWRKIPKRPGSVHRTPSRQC
The note with it: CHO; at 100 µM.
Description: Evaluated for its HMPA (human muscarinic inositol phosphate accumulation) activity measured in CHO cells expressing Muscarinic acetylcholine receptor M1 compound run at 100 uM

The target in experiment [3] is T3, Muscarinic receptor M1 and M2 (Rattus norvegicus, UniProt P08482+P10980).
T3 sequence (P08482 whole entry): T2 sequence (whole entry) with A5V, T254S, P309S, R320K, A337G, I413V
T3 sequence (P10980 whole entry): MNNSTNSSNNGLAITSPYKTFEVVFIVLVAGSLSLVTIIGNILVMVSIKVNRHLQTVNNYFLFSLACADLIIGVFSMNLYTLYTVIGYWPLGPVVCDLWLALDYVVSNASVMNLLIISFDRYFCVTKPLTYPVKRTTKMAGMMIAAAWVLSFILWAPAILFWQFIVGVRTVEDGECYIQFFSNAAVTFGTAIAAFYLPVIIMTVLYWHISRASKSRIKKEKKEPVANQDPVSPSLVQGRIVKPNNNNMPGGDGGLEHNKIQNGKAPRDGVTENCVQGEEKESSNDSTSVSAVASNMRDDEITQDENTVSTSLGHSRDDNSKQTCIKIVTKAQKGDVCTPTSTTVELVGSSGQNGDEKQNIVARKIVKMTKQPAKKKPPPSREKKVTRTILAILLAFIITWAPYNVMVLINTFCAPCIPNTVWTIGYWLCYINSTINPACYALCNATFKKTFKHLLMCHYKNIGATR
In words: Compound was evaluated for its inhibition of [3H]quinuclidinyl benzilate binding to label antagonist site (RQNB) in rat neocortex.

The target of experiment [4] is T4, Muscarinic acetylcholine receptor M3 (Homo sapiens, UniProt P20309). In words: Evaluated for its MIPA (muscarinic-stimulated inositol phosphate accumulation) activity measured in SK-N-SH neuroblastoma cells expressing human muscarinic m3 receptor, compound run at 100 uM;100 uM of carbachol was used. It is filed as functional, cell-based.
Target sequence in this assay (P20309 whole entry, looked up): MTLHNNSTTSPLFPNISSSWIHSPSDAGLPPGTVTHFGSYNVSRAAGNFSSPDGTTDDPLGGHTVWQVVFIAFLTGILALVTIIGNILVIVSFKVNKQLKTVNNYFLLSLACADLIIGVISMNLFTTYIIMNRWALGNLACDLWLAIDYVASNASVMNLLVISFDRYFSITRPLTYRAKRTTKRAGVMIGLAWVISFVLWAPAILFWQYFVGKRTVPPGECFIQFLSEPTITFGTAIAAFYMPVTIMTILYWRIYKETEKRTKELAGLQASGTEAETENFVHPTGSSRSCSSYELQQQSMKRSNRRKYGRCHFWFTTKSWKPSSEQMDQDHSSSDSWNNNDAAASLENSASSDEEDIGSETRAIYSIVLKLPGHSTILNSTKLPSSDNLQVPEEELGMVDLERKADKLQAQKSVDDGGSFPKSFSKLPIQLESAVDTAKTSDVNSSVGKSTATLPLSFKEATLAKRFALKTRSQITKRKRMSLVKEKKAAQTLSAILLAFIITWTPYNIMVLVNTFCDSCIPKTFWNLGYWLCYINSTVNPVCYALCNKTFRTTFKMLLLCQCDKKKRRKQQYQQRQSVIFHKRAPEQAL
For experiment [5], the target named is T4, Muscarinic acetylcholine receptor M3. The format is functional, cell-based, SK-N-SH.
Target sequence in this assay (P20309 whole entry): as the sequence (P20309 whole entry, looked up) above
Description: Effective concentration for MIPA (muscarinic-stimulated inositol phosphate accumulation) activity in SK-N-SH neuroblastoma cells expressing human muscarinic M3 receptor
For experiment [6], the target named is T5, Muscarinic acetylcholine receptor M1 (Homo sapiens, UniProt P11229).
T5 sequence (P11229 whole entry): T2 sequence (whole entry)
The format is functional, cell-based, CHO.
Description: Effective concentration for HMPA (human muscarinic inositol phosphate accumulation) activity measured in CHO cells expressing Muscarinic acetylcholine receptor M1

The target in experiment [7] is T5, Muscarinic acetylcholine receptor M1. The format is functional, cell-based, CHO. The source holds these as a separate data set.
Description: Inhibitory activity against human Muscarinic acetylcholine receptor M1 using [3H]quinuclidinyl benzilate to label antagonist site (RQNB) in CHO cells
Experiment [8] concerns the target Muscarinic acetylcholine receptor. In words: Compound was evaluated for inhibition of [3H]cis-methyldioxolane binding to label agonist sites (RCMD) in rat neocortex.
Experiment [9] concerns the target T5, Muscarinic acetylcholine receptor M1. In words: Compound was evaluated for its inhibitory activity against human Muscarinic acetylcholine receptor M1 using [3H]quinuclidinyl benzilate to label antagonist site (RQNB) in CHO cells; NA=Not active. It is filed as cell-based.
Experiment [10] addresses T1, Muscarinic acetylcholine receptor M2. In words: Compound was evaluated for inhibitory activity against human Muscarinic acetylcholine receptor M2 using [3H]quinuclidinyl benzilate to label antagonist site (RQNB) in CHO cells; NA: Not active. The format is cell-based.
Experiment [11] concerns the target Muscarinic acetylcholine receptors; M1 & M2 (Homo sapiens) (UniProt P11229+P08172). In words: Selectivity ratio for m1 over m2 muscarinic receptors was determined; NA=Not active. It is filed as protein assay.
Experiment [12] addresses T4, Muscarinic acetylcholine receptor M3. In words: Evaluated for its MIPA (muscarinic-stimulated inositol phosphate accumulation) activity measured in SK-N-SH neuroblastoma cells expressing human m3 receptor, compound run at 100 uM;100 uM of carbachol was used. The format is functional, cell-based.
Target sequence in this assay (P20309 whole entry, looked up): as above
The target of experiment [13] is T1, Muscarinic acetylcholine receptor M2. In words: Compound was evaluated for inhibitory activity against human Muscarinic acetylcholine receptor M2 using [3H]quinuclidinyl benzilate to label antagonist site (RQNB) in CHO cells; Not active. The format is cell-based.
Experiment [14] addresses T5, Muscarinic acetylcholine receptor M1. In words: Compound was evaluated for its inhibitory activity against human Muscarinic acetylcholine receptor M1 using [3H]quinuclidinyl benzilate to label antagonist site (RQNB) in CHO cells; Not active. It is filed as cell-based.

For orientation: IC50 means the point on the concentration scale where inhibition reaches its midpoint. A lower IC50 goes with higher potency. As a reminder, the EC50 is the concentration needed to bring the measured effect to its halfway point. Read a high EC50 as lower potency in that assay.

As to `C#CCO/N=C1\CN2CCC1C2` (centres undefined), the IC50 was 1.04 µM in [1], 4.359 µM in experiment [3] and 9.51 µM in experiment [7]. The figures for the CCh in experiment [2] and in experiment [4] were 104% and 51%, respectively. The EC50 worked out at 8.4 µM in experiment [5] and 0.89 µM in [6].
As for `C#CCC#CCC#CCO/N=C1\CN2CCC1C2` (centres undefined), the IC50 stood at 2.18 µM in experiment [1], 0.958 µM in [3] and 2.03 µM in experiment [7]. Besides, the CCh in experiment [2] worked out at 50%; in experiment [4], 0%. The molecule also yielded an EC50 in [6] of 5.1 µM.
As to `C=CCC#CCO/N=C1\CN2CCC1C2` (centres undefined), the IC50 was found to be 15.9 µM in [1], 7.313 µM in [3], 0.032 µM in experiment [8] and 9.44 µM in experiment [7].
Regarding `C#CCCCO/N=C1\CN2CCC1C2` (centres undefined), the IC50 in [3] is 3.655 µM; in experiment [9] it was “Not Active”; in [10] it was “Not Active”; in experiment [8], 0.111 µM. For the same molecule, the Ratio entry in [11] is “inactive”.
Regarding `COCC#CCO/N=C1\CN2CCC1C2` (centres undefined), the IC50 in experiment [1] came to 59.3 µM; in experiment [3], 35.434 µM; in experiment [8], 0.055 µM; in experiment [7], 42.4 µM.
Turning to `C1CC(O/N=C2\CN3CCC2C3)C1` (centres undefined), the IC50 in experiment [1] turned out to be 1.63 µM; in experiment [3], 1.156 µM; in experiment [8], 0.088 µM; in [7], 1.11 µM.
With `CCO/N=C1\CN2CCC1C2` (centres undefined), the IC50 in experiment [3] came out at 3.112 µM; in [8], 0.0125 µM. For the same molecule, in experiment [4], the CCh amounted to 19%. Also, the midpoint of the response in experiment [5], the EC50, lay at 8.9 µM.
In the case of `C#CC(C)O/N=C1\CN2CCC1C2` (centres undefined), the IC50 turned out to be 5.28 µM in experiment [1], 3.984 µM in [3], 0.035 µM in experiment [8] and 3.69 µM in experiment [7].
Turning to `CO/N=C1\CN2CCC1C2` (centres undefined), the IC50 in experiment [1] was found to be 7.89 µM; in experiment [3], 24.558 µM; in experiment [7] it was 85 µM. The CCh in experiment [4] is 53%. The molecule further registered an EC50 in [5] of 14.6 µM.
For the molecule `CCCCC#CCO/N=C1\CN2CCC1C2` (centres undefined), the IC50 in experiment [1] worked out at 9.65 µM; in experiment [3], 6.045 µM; in experiment [8], 0.044 µM; in [7] it was 7.89 µM.
Consider `C(#Cc1ccccc1)CO/N=C1\CN2CCC1C2` (centres undefined), for which the IC50 in [1] came to 25.8 µM; in experiment [3] it was 5.012 µM; in [7], 5.42 µM. Moreover, the CCh in experiment [2] came to 76%; in experiment [4], 11%. The molecule also registered an EC50 in [6] of 3.3 µM.
With `C#CCCO/N=C1\CN2CCC1C2` (centres undefined), the IC50 in experiment [1] was determined as 15.6 µM; in experiment [3] it was 9.806 µM; in experiment [8], 0.083 µM; in experiment [7] it was 14.5 µM.
Take `CCCO/N=C1\CN2CCC1C2` (centres undefined): the IC50 in [1] was 3.98 µM; in experiment [3], 0.032 µM; in experiment [8], 0.12 µM; in experiment [7] it was 3.68 µM. Also, the figures for the CCh in [2] and in experiment [4] were 44% and 3%, respectively. The midpoint of the response in experiment [6], the EC50, lay at 27 µM.
For `C[N+](C)(C)CC#CCOC(=O)Nc1cccc(Cl)c1.[Cl-]`, the IC50 in experiment [1] worked out at 12.9 µM; in [3] it was 5.304 µM; in experiment [8], 0.025 µM; in [7] it was 4 µM. For the same molecule, the CCh in experiment [2] came out at 57%; in [12], 3%. In addition, the response in [6] was half-maximal at 3.5 µM (EC50).
Consider `C#CCC#CCO/N=C1\CN2CCC1C2` (centres undefined), for which the IC50 in experiment [1] was found to be 2.84 µM; in experiment [3] it was 8.834 µM; in experiment [7], 10 µM. The CCh in experiment [2] came out at 79%; in experiment [4], 14%. The EC50 in experiment [5] was 16.4 µM; in [6] it was 4.7 µM.
Consider `CCC#CCO/N=C1\CN2CCC1C2` (centres undefined), for which the IC50 in experiment [1] stood at 8.6 µM; in experiment [3], 5.976 µM; in [8], 0.0036 µM; in experiment [7], 4.9 µM. Moreover, the CCh in experiment [2] turned out to be 72%; in experiment [4], 56%. In addition, the EC50 in experiment [5] came out at 9.6 µM; in [6], 5.9 µM.
For `C#C/C=C/CO/N=C1\CN2CCC1C2` (centres undefined), the results for the IC50 in [1], in [3] and in [7] were 30.2 µM, 13.85 µM and 12.6 µM, respectively.
Regarding `CC(C)(C)O/N=C1\CN2CCC1C2` (centres undefined), the IC50 in [1] was found to be 4.46 µM; in experiment [3], 3.54 µM; in experiment [8] it was 0.091 µM; in experiment [7], 3.84 µM.
For the molecule `CC#CCO/N=C1\CN2CCC1C2` (centres undefined), the IC50 in experiment [1] was determined as 1.7 µM; in experiment [3] it was 4.214 µM; in experiment [8], 0.004 µM; in experiment [7] it was 5.81 µM. In addition, the CCh turned out to be 63% in experiment [2] and 49% in [12]. Further, the EC50 in experiment [5] came out at 8.8 µM; in experiment [6] it was 1.9 µM.
Take `O/N=C1\CN2CCC1C2` (centres undefined): the IC50 entry in experiment [13] was “Not Active”; in experiment [3] it was above 1 µM; in experiment [14] it was “Not Active”; in experiment [8], above 0.1 µM.
For `CC#CCC#CCO/N=C1\CN2CCC1C2` (centres undefined), the IC50 in [1] was 5.08 µM; in experiment [3] it was 2.914 µM; in experiment [8] it was 0.039 µM; in [7], 5.68 µM. Besides, the CCh in experiment [2] was found to be 81%; in experiment [4] it was 2%. This molecule also registered an EC50 in experiment [6] of 5.05 µM.
As for `CC(C)O/N=C1\CN2CCC1C2` (centres undefined), the IC50 in experiment [1] is 3.15 µM; in experiment [3], 2.03 µM; in [8] it was 0.046 µM; in experiment [7], 2.61 µM.
As to `Nc1noc(C2CN3CCC2C3)n1` (centres undefined) [OXADIAZOLE], the IC50 stood at 0.02 µM in experiment [1], 0.088 µM in [3], 0.0003 µM in experiment [8] and 0.4 µM in experiment [7]. Further, the CCh in experiment [2] came out at 293%; in experiment [4], 0.269%. Also, the half-maximal effective concentration (EC50) was found to be 104 µM in [5] and 100 µM in experiment [6].
